Measurements published in patent US20250143304A1, “INSECT, ACARINA AND NEMATODE PEST CONTROL” (SYNGENTA CROP PROTECTION AG, priority 2022, published 2025).
Like-named read-outs stand apart in the source and are kept apart here.

Tested on: Spodoptera littoralis (Egyptian cotton leaf worm)
Assay: Spodoptera littoralis (Egyptian cotton leaf worm) feeding/contact activity assay, mortality on cotton leaf discs; synergy by COLBY formula
Assay type: in vivo
Excerpt: A synergistic effect exists whenever the action of an active ingredient combination is greater than the sum of the actions of the individual components. The action to be expected E for a given active ingredient combination obeys the so-called COLBY formula and can be calculated as follows (COLBY, S.R. “Calculating synergistic and antagonistic responses of herbicide combination”. Weeds, Vol. 15, pages 20-22 1967): • ppm=milligrams of active ingredient (a.i.) per liter • X=% action by first active ingredient using p ppm of the active ingredient • Y=% action by second active ingredient using q ppm of the active ingredient.
According to Colby, the expected (additive) action of active ingredients A+B using p+q ppm of active
If the action actually observed O is greater than the expected action E, then the action of the combination is super-additive, i.e. there is a synergistic effect. In mathematical terms, synergism corresponds to a positive value for the difference of (O-E). In the case of purely complementary addition of activities (expected activity), said difference (O-E) is zero. A negative value of said difference (O-E) signals a loss of activity compared to the expected activity.
The synergistic biological activity of combinations of component (A) and component (B) as disclosed herein was assessed using a Spodoptera littoralis (Egyptian cotton leaf worm) feeding/contact activity assay. Cotton leaf discs were placed onto agar in 24-well microtiter plates and sprayed with aqueous test solutions prepared from 10′000 ppm DMSO stock solutions. After drying the leaf discs were infested with L1 larvae. The samples were assessed for mortality 3 days after infestation.

[1] = Spodoptera littoralis, foliar, 72 h, read-out: Mortality (%) Observed (%)
[2] = single component alone at 1.95312 mg/L, 3 days after infestation
[3] = single component alone at 3.90625 mg/L, 3 days after infestation
[4] = single component alone at 7.8125 mg/L, 3 days after infestation
[5] = single component alone at 15.625 mg/L, 3 days after infestation
[6] = single component alone at 31.25 mg/L, 3 days after infestation
[7] = single component alone at 62.5 mg/L, 3 days after infestation
[8] = single component alone at 125 mg/L, 3 days after infestation
[9] = single component alone at 250 mg/L, 3 days after infestation

SMILES: CC1(C)C(C=C(Cl)Cl)C1C(=O)OC(C#N)c1cccc(Oc2ccccc2)c1 (stereo not drawn) [B-46, alpha-cypermethrin]
- mortality at 0.015625 µg/mL [1]: 0%
- mortality at 0.03125 µg/mL [1]: 0%
- mortality at 0.0625 µg/mL [1]: 0%
- mortality at 0.125 µg/mL [1]: 0%
- mortality at 0.25 µg/mL [1]: 0%
- mortality at 0.5 µg/mL [1]: 60%

SMILES: CNC(=O)c1cc(Cl)cc(C)c1NC(=O)c1cc(Br)nn1-c1ncccc1Cl [B-43, chlorantraniliprole]
- mortality at 0.00390625 µg/mL [1]: 0%
- mortality at 0.0078125 µg/mL [1]: 0%
- mortality at 0.015625 µg/mL [1]: 0%
- mortality at 0.03125 µg/mL [1]: 0%
- mortality at 0.0625 µg/mL [1]: 0%
- mortality at 0.125 µg/mL [1]: 0%

SMILES: C[n+]1c([O-])c(-c2ccccc2)c(=O)n2c1SC[C@@H]2c1cnc(Cl)s1 [B-5, fenmezoditiaz]
- Mortality (%) Observed (%) (single component alone at 0.488281 mg/L, 3 days after infestation): 0%
- Mortality (%) Observed (%) (single component alone at 0.976562 mg/L, 3 days after infestation): 0%
- Mortality (%) Observed (%) [2]: 0%
- Mortality (%) Observed (%) [3]: 0%
- Mortality (%) Observed (%) [4]: 0%

SMILES: CC1(NC(=O)c2cccc3nn(-c4cccnc4)cc23)CC1 [B-4, indazapyroxamet]
- Mortality (%) Observed (%) [4]: 0%
- Mortality (%) Observed (%) [5]: 0%

SMILES: CCS(=O)(=O)c1cccnc1-c1cnc(OCC(F)(F)C(F)(F)F)cn1 [B-17, 2-(3-ethylsulfonyl-2-pyridyl)-5-(2,2,3,3,3-pentafluoropropoxy)pyrazine]
- mortality at 0.0390625 µg/mL (Spodoptera littoralis, foliar, 72 h, single component alone at 0.0390625 mg/L, 3 days after infestation, read-out: Mortality (%) Observed (%)): 0%
- mortality at 0.078125 µg/mL (Spodoptera littoralis, foliar, 72 h, single component alone at 0.078125 mg/L, 3 days after infestation, read-out: Mortality (%) Observed (%)): 0%
- mortality at 0.15625 µg/mL (Spodoptera littoralis, foliar, 72 h, single component alone at 0.15625 mg/L, 3 days after infestation, read-out: Mortality (%) Observed (%)): 0%
- mortality at 0.3125 µg/mL (Spodoptera littoralis, foliar, 72 h, single component alone at 0.3125 mg/L, 3 days after infestation, read-out: Mortality (%) Observed (%)): 0%
- mortality at 0.625 µg/mL (Spodoptera littoralis, foliar, 72 h, single component alone at 0.625 mg/L, 3 days after infestation, read-out: Mortality (%) Observed (%)): 0%
- mortality at 1.25 µg/mL (Spodoptera littoralis, foliar, 72 h, single component alone at 1.25 mg/L, 3 days after infestation, read-out: Mortality (%) Observed (%)): 0%
- mortality at 2.5 µg/mL (Spodoptera littoralis, foliar, 72 h, single component alone at 2.5 mg/L, 3 days after infestation, read-out: Mortality (%) Observed (%)): 20%

SMILES: CN/C(=N\[N+](=O)[O-])NCc1cnc(Cl)s1 [B-38, clothianidin]
- mortality at 0.15625 µg/mL [1]: 0%
- mortality at 0.3125 µg/mL [1]: 0%
- mortality at 0.625 µg/mL [1]: 0%
- mortality at 1.25 µg/mL [1]: 0%
- mortality at 2.5 µg/mL [1]: 0%

SMILES: CCC(=O)NCc1ccc(C2=NO[C@@](c3cc(Cl)c(F)c(Cl)c3)(C(F)(F)F)C2)c2c1OCC2 [A-1, N-[[4-[(5S)-5-(3,5-dichloro-4-fluorophenyl)-5-(trifluoromethyl)-4H-isoxazol-3-yl]-2,3-dihydrobenzofuran-7-yl]methyl]propanamide]
- mortality at 0.0078125 µg/mL [1]: 0%
- mortality at 0.015625 µg/mL [1]: 0%
- mortality at 0.03125 µg/mL [1]: 0%
- mortality at 0.0625 µg/mL [1]: 80%
- mortality at 0.125 µg/mL [1]: 100%

SMILES: C[C@]1(COC(=O)C2CC2)[C@@H]2C[C@H](O)[C@@]3(C)Oc4cc(-c5cccnc5)oc(=O)c4[C@H](O)[C@@H]3[C@@]2(C)CC[C@@H]1OC(=O)C1CC1 [B-134, afidopyropen]
- Mortality (%) Observed (%) [2]: 0%
- Mortality (%) Observed (%) [3]: 0%
- Mortality (%) Observed (%) [4]: 0%
- Mortality (%) Observed (%) [5]: 0%
- Mortality (%) Observed (%) [6]: 0%
- Mortality (%) Observed (%) [7]: 0%
- Mortality (%) Observed (%) [8]: 0%
- Mortality (%) Observed (%) [9]: 0%

SMILES: CCN(C(=O)c1cnn(C(C)C(C)C)c1C)c1ccnnc1 (stereo not shown) [B-133, dimpropyridaz]
- Mortality (%) Observed (%) [5]: 0%
- Mortality (%) Observed (%) [6]: 0%
- Mortality (%) Observed (%) [7]: 0%
- Mortality (%) Observed (%) [8]: 0%
- Mortality (%) Observed (%) [9]: 0%
